Experimental findings from US20080021098A1, “Antifungal Compositions” (GIVAUDAN SA, priority 2004, published 2008) are described below.

Structures are written as SMILES.

The test system of the experiment is Cladosporium sphaerospermum IK-65 on cotton fabrics / Cladosporium sphaerospermum MTL on plaster. As to the kind of experiment: Minimal headspace level required for antifungal activity (olfactometer, constant fragrance vapour). It is filed as cell-based. The note with it: test phase of 7 days; for Effect on fungal growth: at the headspace level of the same line; for Headspace level required to inhibit fungal growth: constant vapour concentration. How it is done: In order to determine the effective level of the anti-mould fragrance compounds needed for anti-mould vapour phase activity, an olfactometer is constructed that allows delivery to the fungal growth substrate of a constant concentration of fragrance vapour. A stream of nitrogen is saturated with the fragrance component, and the fragrance-saturated gas is then diluted with water saturated air at different ratios. This mixture is then blown continuously through enclosed acryl-glass boxes and the headspace is measured by sampling 1 ml gas sample with subsequent analysis in the gas chromatograph. Once a steady state in the acryl-glass box is reached (usually within 1-3 days), a fungal inoculum on a relevant substrate is added to the box, and fungal growth during a test phase of 7 days is evaluated.
The following relevant substrate—inoculum combinations were used: • (a) White pieces of cotton fabrics were soaked with a solution of potato dextrose broth diluted to a final concentration of 5% containing spores from the fungal test strain Cladosporium sphaerospermum IK-65 diluted to a final density corresponding to an optical density at 600 nm of 0.01. The test strain IK 65 was isolated from moist fabrics having fungal off odors, and it is a typical strain growing on fabrics as substrate. • (b) White plaster used for fixing ceramic tiles in bathrooms was spread homogenously on the back of 35 mm Petri dishes. On each Petri dish, 160 μl of a fungal inoculum was evenly spread. It contained potato dextrose broth diluted to a final concentration of 50% and spores from the fungal test strain Cladosporium sphaerospermum MTL diluted to a final density corresponding to an optical density at 600 nm of 0.004. The test strain MTL was isolated from a bathroom with vigorous mould growth on the plaster between tiles.

For the compound `CC1=CC(C)C(C=O)CC1` (stereo not shown) [1-carboxaldehyde-2,4-dimethyl-cyclohex-3-en], the “Effect on fungal growth” value is given as “over 90% inhibition” and the “Headspace level required to inhibit fungal growth” value worked out at 21 µg/L.
On to `CC1(C)CCCC2=C1CC(C=O)CC2` (stereo not shown) [8,8-Dimethyl-1,2,3,4,5,6,7,8-octahydro-naphthalene-2-carbaldehyde], for which the “Effect on fungal growth” value is recorded as “complete inhibition” and the “Headspace level required to inhibit fungal growth” value worked out at 4.9 µg/L.
For `COc1ccc(CC(C)C=O)cc1` (stereo not shown) [3-(4-methoxyphenyl)-2-methyl-propanal] the same measures were “complete inhibition” and 1.9 µg/L.
For `CC1=CCC(C(C)CCO)CC1` (stereo not shown) [3-(4-methyl-3-cyclohexenyl)-butanol] the same measures were 80% inhibition and 4.5 µg/L.
On the same counts, the results for `COc1ccc(C=O)cc1` [4-methoxy-benzaldehyde] are “over 90% inhibition” and 7.5 µg/L.
